# Measurements from publication PMC10986499, “Unravelling HetC as a peptidase-based ABC exporter driving functional cell differentiation in the cyanobacterium Nostoc PCC 7120” (Microbiology Spectrum, 2024).
# Assays:
# [1] = molecular target: T1, HetC (Nostoc sp. PCC 7120 = FACHB-418, UniProt A0ACD7RTN5); test: chromogenic peptidase assay at […] nm with purified HetCNTD, […] substrate; format: biochemical
# T1 construct: HetCNTD, N-terminal domain (first 480 residues; includes C39 peptidase domain), hexa-his tagged
# T1 sequence (A0ACD7RTN5 1-480): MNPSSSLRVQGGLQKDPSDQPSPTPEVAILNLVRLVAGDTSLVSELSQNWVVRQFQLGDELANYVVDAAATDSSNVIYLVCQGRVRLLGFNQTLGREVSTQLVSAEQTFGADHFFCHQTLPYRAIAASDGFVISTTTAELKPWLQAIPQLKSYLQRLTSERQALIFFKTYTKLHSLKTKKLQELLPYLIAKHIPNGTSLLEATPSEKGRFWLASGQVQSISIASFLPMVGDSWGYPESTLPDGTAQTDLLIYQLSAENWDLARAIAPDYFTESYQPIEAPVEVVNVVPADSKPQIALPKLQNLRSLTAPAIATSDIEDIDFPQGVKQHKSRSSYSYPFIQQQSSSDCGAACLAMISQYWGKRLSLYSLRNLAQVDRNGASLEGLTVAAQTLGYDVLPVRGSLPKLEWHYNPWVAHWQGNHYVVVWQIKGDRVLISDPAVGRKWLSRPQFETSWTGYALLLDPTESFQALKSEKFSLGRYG
# [2] = molecular target: T2, HetC (Nostoc sp. PCC 7120 = FACHB-418, UniProt A0ACD7RTN5); test: ITC (triplicate), supported by nanoDSF shift (ΔTm […] °C at […]); format: binding
# T2 construct: HetCNTD, N-terminal domain (first 480 residues)
"chromogenic peptidase assay at 405 nm with purified HetCNTD, 1 mM substrate [1]",Kd [2],SMILES
0.22 ± 0.08 pmol/min/µg of protein,,N=C(N)NCCC[C@H](N)C(=O)Nc1ccc([N+](=O)[O-])cc1 [L-Arginine p-nitroanilide]
,~59 µM,Nc1nc2c(ncn2[C@@H]2O[C@H](COP(=O)(O)OP(=O)(O)O)[C@@H](OP(=O)(O)OP(=O)(O)O)[C@H]2O)c(=O)[nH]1 [ppGpp]
